Source: paper PMC4146346 (Journal of cellular physiology, 2012)

What was measured:
Assay in all cases: whole-cell patch clamp in HEK-293
Assay type in all cases: cell-based
CaV3.2 (α1H) = CaV3.2 (α1H) (Homo sapiens, UniProt O95180)
CaV3.3 (α1I) = CaV3.3 (α1I) (Homo sapiens, UniProt Q9P0X4)
CaV3.1 (α1G) = CaV3.1 (α1G) (Homo sapiens, UniProt O43497)
CaV3.1 (α1G), sequence (O43497 whole entry): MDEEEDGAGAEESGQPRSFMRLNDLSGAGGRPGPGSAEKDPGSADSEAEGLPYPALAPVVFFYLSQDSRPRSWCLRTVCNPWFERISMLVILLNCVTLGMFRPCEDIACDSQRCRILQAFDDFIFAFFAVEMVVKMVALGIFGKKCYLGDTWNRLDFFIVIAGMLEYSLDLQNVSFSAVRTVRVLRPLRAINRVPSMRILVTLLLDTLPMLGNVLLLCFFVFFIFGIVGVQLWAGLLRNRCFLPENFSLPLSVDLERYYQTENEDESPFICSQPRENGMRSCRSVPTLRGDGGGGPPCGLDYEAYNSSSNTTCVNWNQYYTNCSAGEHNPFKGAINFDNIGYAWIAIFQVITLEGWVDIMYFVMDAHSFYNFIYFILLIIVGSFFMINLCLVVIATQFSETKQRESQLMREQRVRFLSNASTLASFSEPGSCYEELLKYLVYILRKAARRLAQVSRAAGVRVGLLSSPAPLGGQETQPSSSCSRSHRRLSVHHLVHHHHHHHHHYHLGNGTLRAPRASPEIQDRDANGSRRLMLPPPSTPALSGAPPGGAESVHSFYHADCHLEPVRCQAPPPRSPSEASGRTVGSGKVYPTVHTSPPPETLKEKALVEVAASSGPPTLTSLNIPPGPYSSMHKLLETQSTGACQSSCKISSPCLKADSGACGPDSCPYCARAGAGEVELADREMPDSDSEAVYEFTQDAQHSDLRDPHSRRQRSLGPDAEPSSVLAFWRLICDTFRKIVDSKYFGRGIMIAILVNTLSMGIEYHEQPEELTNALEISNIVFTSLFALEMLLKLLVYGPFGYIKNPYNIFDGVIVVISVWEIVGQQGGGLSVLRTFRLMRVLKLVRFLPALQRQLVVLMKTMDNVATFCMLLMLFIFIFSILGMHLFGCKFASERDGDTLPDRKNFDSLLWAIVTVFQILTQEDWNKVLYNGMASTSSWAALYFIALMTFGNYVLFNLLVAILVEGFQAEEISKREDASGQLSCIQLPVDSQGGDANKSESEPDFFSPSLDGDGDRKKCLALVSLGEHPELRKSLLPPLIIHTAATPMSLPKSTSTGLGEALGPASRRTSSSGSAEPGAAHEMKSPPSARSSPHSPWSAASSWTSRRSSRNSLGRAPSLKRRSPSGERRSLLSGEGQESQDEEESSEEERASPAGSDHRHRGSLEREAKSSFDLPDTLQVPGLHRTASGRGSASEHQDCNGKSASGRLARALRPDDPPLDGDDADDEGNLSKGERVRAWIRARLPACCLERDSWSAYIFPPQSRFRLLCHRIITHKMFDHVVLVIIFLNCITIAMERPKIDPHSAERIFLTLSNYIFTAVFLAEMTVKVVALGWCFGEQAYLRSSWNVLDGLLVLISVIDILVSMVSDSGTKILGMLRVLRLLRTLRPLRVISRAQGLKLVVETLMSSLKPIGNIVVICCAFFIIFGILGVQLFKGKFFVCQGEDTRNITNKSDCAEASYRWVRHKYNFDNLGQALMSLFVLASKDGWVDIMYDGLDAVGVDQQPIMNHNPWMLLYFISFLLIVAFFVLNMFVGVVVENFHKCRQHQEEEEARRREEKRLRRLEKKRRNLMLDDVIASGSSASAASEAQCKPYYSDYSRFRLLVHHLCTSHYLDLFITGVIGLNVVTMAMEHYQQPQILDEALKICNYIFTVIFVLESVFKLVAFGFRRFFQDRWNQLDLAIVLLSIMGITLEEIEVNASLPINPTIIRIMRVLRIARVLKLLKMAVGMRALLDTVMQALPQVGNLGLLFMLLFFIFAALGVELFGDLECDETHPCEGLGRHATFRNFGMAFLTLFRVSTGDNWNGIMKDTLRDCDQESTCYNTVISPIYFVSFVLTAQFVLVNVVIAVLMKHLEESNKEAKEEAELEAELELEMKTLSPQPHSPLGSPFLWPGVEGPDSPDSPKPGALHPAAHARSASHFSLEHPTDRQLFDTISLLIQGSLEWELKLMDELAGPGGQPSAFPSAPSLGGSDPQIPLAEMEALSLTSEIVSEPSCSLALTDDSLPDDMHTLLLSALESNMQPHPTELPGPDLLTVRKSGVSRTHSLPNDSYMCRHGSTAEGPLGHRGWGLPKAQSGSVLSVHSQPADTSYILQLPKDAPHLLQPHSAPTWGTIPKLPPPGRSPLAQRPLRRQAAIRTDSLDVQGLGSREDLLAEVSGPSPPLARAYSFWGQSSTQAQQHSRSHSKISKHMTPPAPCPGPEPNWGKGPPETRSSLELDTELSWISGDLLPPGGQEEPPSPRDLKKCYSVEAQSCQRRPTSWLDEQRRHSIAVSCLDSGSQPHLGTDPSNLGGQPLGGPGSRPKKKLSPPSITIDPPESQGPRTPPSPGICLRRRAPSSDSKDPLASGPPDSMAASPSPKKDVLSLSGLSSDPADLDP

CaV3.3 (α1I), sequence (Q9P0X4 whole entry): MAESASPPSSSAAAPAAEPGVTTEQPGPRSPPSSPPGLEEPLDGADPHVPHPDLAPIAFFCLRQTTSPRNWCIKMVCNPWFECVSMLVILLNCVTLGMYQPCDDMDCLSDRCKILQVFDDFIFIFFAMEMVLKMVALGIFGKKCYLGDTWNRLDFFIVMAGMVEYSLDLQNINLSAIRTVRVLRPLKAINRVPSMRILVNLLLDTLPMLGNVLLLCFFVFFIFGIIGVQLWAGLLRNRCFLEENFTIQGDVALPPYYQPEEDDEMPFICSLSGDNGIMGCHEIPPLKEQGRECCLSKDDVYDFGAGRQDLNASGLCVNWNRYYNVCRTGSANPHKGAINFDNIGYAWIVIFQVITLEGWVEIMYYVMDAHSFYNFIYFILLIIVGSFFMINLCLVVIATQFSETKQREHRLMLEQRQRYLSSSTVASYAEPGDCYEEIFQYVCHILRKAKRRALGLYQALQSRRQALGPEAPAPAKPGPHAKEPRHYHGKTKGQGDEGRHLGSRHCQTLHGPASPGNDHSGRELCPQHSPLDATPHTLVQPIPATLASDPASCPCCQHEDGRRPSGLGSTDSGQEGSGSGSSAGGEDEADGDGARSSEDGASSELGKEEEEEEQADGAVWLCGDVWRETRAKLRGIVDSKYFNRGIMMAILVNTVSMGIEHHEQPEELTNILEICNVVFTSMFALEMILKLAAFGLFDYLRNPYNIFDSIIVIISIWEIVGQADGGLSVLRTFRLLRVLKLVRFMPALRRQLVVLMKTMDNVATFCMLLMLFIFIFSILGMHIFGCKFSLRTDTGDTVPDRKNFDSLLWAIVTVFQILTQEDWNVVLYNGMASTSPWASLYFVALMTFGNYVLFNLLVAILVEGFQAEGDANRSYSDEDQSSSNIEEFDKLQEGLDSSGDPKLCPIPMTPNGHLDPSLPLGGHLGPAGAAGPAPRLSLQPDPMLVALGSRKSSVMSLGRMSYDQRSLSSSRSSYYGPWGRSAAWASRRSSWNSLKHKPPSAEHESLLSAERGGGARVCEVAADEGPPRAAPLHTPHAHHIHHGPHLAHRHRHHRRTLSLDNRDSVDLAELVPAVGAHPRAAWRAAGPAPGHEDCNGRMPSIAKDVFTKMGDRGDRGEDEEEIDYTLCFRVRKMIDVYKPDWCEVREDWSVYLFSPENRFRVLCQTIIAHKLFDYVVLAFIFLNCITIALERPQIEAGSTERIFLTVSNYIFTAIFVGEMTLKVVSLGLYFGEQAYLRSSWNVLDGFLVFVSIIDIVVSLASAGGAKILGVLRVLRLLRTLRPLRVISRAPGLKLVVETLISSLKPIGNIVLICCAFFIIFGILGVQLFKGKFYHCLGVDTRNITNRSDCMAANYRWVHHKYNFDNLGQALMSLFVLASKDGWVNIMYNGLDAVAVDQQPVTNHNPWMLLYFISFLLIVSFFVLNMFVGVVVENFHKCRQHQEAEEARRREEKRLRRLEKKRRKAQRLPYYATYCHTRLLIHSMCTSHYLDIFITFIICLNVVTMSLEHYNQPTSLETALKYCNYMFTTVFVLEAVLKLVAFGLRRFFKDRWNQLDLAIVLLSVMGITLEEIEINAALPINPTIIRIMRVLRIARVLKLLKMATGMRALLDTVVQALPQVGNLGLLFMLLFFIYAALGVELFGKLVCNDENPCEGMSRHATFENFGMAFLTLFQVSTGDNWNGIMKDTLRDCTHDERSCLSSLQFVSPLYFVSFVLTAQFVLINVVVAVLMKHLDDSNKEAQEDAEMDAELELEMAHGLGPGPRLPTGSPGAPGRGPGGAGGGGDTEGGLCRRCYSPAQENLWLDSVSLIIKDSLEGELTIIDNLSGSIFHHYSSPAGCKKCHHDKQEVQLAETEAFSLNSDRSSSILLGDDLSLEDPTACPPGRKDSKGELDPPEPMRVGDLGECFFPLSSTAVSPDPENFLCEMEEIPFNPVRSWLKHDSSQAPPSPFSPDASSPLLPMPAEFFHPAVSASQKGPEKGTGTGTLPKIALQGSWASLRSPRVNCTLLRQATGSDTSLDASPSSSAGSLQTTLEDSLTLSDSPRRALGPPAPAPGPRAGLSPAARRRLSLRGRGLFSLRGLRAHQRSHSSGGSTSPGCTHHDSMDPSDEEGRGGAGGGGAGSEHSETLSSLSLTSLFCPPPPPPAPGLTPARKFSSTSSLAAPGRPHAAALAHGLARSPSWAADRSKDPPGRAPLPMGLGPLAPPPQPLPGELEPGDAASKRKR

- Kd (CaV3.2 (α1H)): 192 µM
- Kd (CaV3.3 (α1I)): 137 µM
- Kd (CaV3.1 (α1G)): 78.4 µM
Structure (SMILES): O=C(O)c1cccnc1Nc1cccc(C(F)(F)F)c1 [NA, 2-{[3-(trifluoromethyl)phenyl]amino}-pyridine-3-carboxylic acid]
